Format in all cases: functional
Experiment [1] relates to Mycobacterium tuberculosis. The experiment in a line: Antimycobacterial activity against Mycobacterium tuberculosis H37Rv under aerobic condition.
The subject of experiment [2] is Mycolicibacterium smegmatis. The experiment in a line: Antimycobacterial activity against Mycobacterium smegmatis under aerobic condition.
In experiment [3] the test system is Mycolicibacterium smegmatis. The experiment in a line: Antimycobacterial activity against Mycobacterium smegmatis under dormancy-inducing hypoxic condition.
Experiment [4] relates to Mycobacterium tuberculosis. The experiment in a line: Antimycobacterial activity against Mycobacterium tuberculosis H37Rv under dormancy-inducing hypoxic condition.

Converted amounts (≈) assume the structure as drawn. *1 amine or outer side, *2 acyl side, *3 side chain or, on linkers, in order; H or OH if unused. Where a SMILES comes first, the peptide text is derived from it. [ ]: non-standard residue; d: D form. The star is where a group is joined. X2 = CCC(=O)C[C@@H](O)C[C@@H](C)C[C@H](N[*:1])C(=O)[*:2]; X1 = CCC(=O)/C=C/C[C@@H](C)C[C@H](N[*:1])C(=O)[*:2]; Alaψ(CH2NMeCH2CH2OH) = C[C@@H](CN(C)CCO)N*; Decanoyl(2R-Me) = CCCCCCCC[C@@H](C)C(=O)*; Aib = CC(C)(N)C(=O)O

Experimental findings from ChEMBL document CHEMBL1158611, “Trichoderins, novel aminolipopeptides from a marine sponge-derived Trichoderma sp., are active against dormant mycobacteria” (2010) are described below.

By MIC is commonly meant the least concentration at which growth counts as inhibited. Regarding `NNC(=O)c1ccncc1` [ISONIAZID], the MIC was 0.05 µg/mL (≈ 0.365 µM) in experiment [1], 2.5 µg/mL (≈ 18.2 µM) in experiment [2], 25 µg/mL (≈ 182 µM) in experiment [3] and greater than 100 µg/mL in experiment [4].
As for `CCCCCCCC[C@@H](C)C(=O)N1CCC[C@H]1C(=O)N[C@@H](C[C@H](C)C/C=C/C(=O)CC)C(=O)NC(C)(C)C(=O)NC(C)(C)C(=O)N[C@H](C(=O)N[C@H](C(=O)NC(C)(C)C(=O)NC(C)(C)C(=O)N[C@@H](C)CN(C)CCO)C(C)C)[C@@H](C)CC` [TRICHODERIN A1] ({Decanoyl(2R-Me)}-P[X1][Aib][Aib]IV[Aib][Aib]-{Alaψ(CH2NMeCH2CH2OH)}), the MIC in experiment [1] stood at 2 µg/mL (≈ 1.75 µM); in experiment [2] it was 1.56 µg/mL (≈ 1.36 µM); in experiment [3], 1.56 µg/mL (≈ 1.36 µM); in experiment [4] it was 2 µg/mL (≈ 1.75 µM).
`CCCCCCCC[C@@H](C)C(=O)N1CCC[C@H]1C(=O)N[C@@H](C[C@H](C)C[C@H](O)CC(=O)CC)C(=O)NC(C)(C)C(=O)NC(C)(C)C(=O)N[C@H](C(=O)N[C@H](C(=O)NC(C)(C)C(=O)NC(C)(C)C(=O)N[C@@H](C)CN(C)CCO)C(C)C)[C@@H](C)CC` [TRICHODERIN A] ({Decanoyl(2R-Me)}-P[X2][Aib][Aib]IV[Aib][Aib]-{Alaψ(CH2NMeCH2CH2OH)}): the MIC in experiment [1] was determined as 0.12 µg/mL (≈ 0.103 µM); in experiment [2] it was 0.1 µg/mL (≈ 0.0859 µM); in experiment [3], 0.1 µg/mL (≈ 0.0859 µM); in experiment [4] it was 0.12 µg/mL (≈ 0.103 µM).
As for `CCCCCCCC[C@@H](C)C(=O)N1CCC[C@H]1C(=O)N[C@@H](C[C@H](C)C[C@H](O)CC(=O)CC)C(=O)NC(C)(C)C(=O)NC(C)(C)C(=O)N[C@H](C(=O)N[C@H](C(=O)NC(C)(C)C(=O)NC(C)(C)C(=O)N[C@@H](C)CN(C)CCO)C(C)C)C(C)C` [TRICHODERIN B] ({Decanoyl(2R-Me)}-P[X2][Aib][Aib]VV[Aib][Aib]-{Alaψ(CH2NMeCH2CH2OH)}), the MIC in experiment [1] was found to be 0.13 µg/mL (≈ 0.113 µM); in experiment [2], 0.63 µg/mL (≈ 0.548 µM); in experiment [3], 0.63 µg/mL (≈ 0.548 µM); in experiment [4], 0.13 µg/mL (≈ 0.113 µM).
